The IC50 is the concentration that inhibits the measured activity by half. Lower therefore signals greater potency in that assay.

The source of these data is ChEMBL document CHEMBL4304757, “Synthetic heterocyclic candidates as promising α-glucosidase inhibitors: An overview” (Eur J Med Chem, 2019).

One experiment has as its target T1, Alpha glucosidase (Homo sapiens, UniProt O43451+P10253+P14410+Q2M2H8). Briefly: Inhibition of alpha-glucosidase (unknown origin) using p-nitrophenyl-alpha-d-glucopyranoside as substrate preincubated for 5 mins followed by substrate addition measured after 5 mins. The class given is protein assay.
In turn, `O=C(N/N=C/c1ccc([N+](=O)[O-])cc1)c1cc2ccccc2oc1=O` registered an IC50 of 1.1 to 36 µM.

Consider `COc1cccc(-c2nnc(N)s2)c1OC`, for which the IC50 lay in the range of 2.3 to 38 µM.

Regarding `COc1ccc(Br)cc1/C=N/c1nnc(-c2cccc([N+](=O)[O-])c2)s1`, the IC50 lay within 2.3 to 25 µM.

In turn, `O=[N+]([O-])c1cccc(-c2nnc(/N=C/c3ccc(Cl)cc3Cl)s2)c1` came in with an IC50 of 2.3 to 25 µM.

For the compound `O=C(N/N=C/c1ccncc1)c1cc2ccccc2oc1=O`, the IC50 was in the range of 1.1 to 36 µM.

Take `Nc1nnc(-c2ccc(Cl)cc2Cl)s1`: the half-maximal inhibitory concentration (IC50) was in the range of 2.3 to 38 µM.

As for `O=C(N/N=C/c1ccccc1)c1cc2ccccc2oc1=O`, the IC50 is 1.1 to 36 µM.

In the case of `COc1ccc(/C=N/NC(=O)c2cc3ccccc3oc2=O)cc1`, the IC50 was in the range of 1.1 to 36 µM.

Compound `COc1ccc(/C=N/NC(=O)c2cc3ccccc3oc2=O)c(O)c1` showed an IC50 of 1.1 to 36 µM.

Molecular target in another experiment: not listed separately
Briefly: Inhibition of yeast alpha-glucosidase. Set-up: species or system Saccharomyces cerevisiae.
Regarding `Cc1cc2c(c(=O)[nH]1)C(=O)O/C2=C\c1nccn1C`, inhibition was half-maximal at 0.9 µM (IC50).

`CC(C)(C)c1ccc(COc2cccc(-c3cc(=O)c4ccccc4o3)c2)cc1`: the half-inhibitory concentration (IC50) lay in the range of 1.2 to 88 µM.

`COc1ccc(COc2cccc(-c3cc(=O)c4ccccc4o3)c2)cc1` returned an IC50 of 1.2 to 88 µM.

On to `Cc1cc2c(c(=O)[nH]1)C(=O)O/C2=C\c1cc(-c2ccnc(N3CCN(C(=O)OC(C)(C)C)CC3)c2)cs1`, for which the IC50 is 8.3 to 86 µM.

Compound `Cc1cc2c(c(=O)[nH]1)C(=O)O/C2=C\c1ccccc1` registered an IC50 of 1 to 53 µM.

The compound `O=c1cc(-c2cccc(OCc3cccc(SC(F)(F)F)c3)c2)oc2ccccc12` registered an IC50 of 1.2 to 88 µM.

The compound `O=c1cc(-c2cccc(OCc3ccccc3)c2)oc2ccccc12` returned an IC50 of 1.2 to 88 µM.

Turning to `Cc1cc2c(c(=O)[nH]1)C(=O)O/C2=C\c1cccc(Br)c1`, the IC50 fell in the range of 1 to 53 µM.

For the compound `O=c1cc(-c2cccc(OCc3ccc([N+](=O)[O-])cc3)c2)oc2ccccc12`, the IC50 lay within 1.2 to 88 µM.

As to `Cc1cc2c(c(=O)[nH]1)C(=O)O/C2=C\c1cccs1`, the IC50 was 0.24 to 10 µM.

As for `O=c1cc(-c2cccc(OCc3cccc(F)c3F)c2)oc2ccccc12`, half-maximal inhibition (IC50) was put at 3.4 µM. That is a single-digit micromolar value.

`Cc1cc2c(c(=O)[nH]1)C(=O)O/C2=C\c1ccccc1C(F)(F)F` showed an IC50 of 1 to 53 µM.

Compound `Cc1cc2c(c(=O)[nH]1)C(=O)O/C2=C\c1ccc(O)c(O)c1` showed an IC50 of 1 to 53 µM.

`Cc1cc2c(c(=O)[nH]1)C(=O)O/C2=C\c1ccc(Br)cc1`: the IC50 lay within 1 to 53 µM.

`Cc1cc2c(c(=O)[nH]1)C(=O)O/C2=C\c1cc(Br)cs1` showed an IC50 of 0.24 µM.

Take `Cc1cc2c(c(=O)[nH]1)C(=O)O/C2=C\c1cc(-c2ccccc2)cs1`: the IC50 was 8.3 µM.

Regarding `Cc1cc2c(c(=O)[nH]1)C(=O)O/C2=C\c1ccc(F)c(F)c1`, the IC50 stood at 1 µM. This IC50 lies about 8.3-fold lower than the previous one.

Consider `N#Cc1ccc(COc2cccc(-c3cc(=O)c4ccccc4o3)c2)cc1`, for which the IC50 lay in the range of 1.2 to 88 µM.

`O=c1cc(-c2cccc(OCc3cc(C(F)(F)F)ccc3C(F)(F)F)c2)oc2ccccc12`: the IC50 was 1.2 µM.

In the case of `COc1ccc(-c2csc(/C=C3\OC(=O)c4c3cc(C)[nH]c4=O)c2)cn1`, the half-inhibitory concentration (IC50) was in the range of 8.3 to 86 µM.

As to `N#Cc1cccc(COc2cccc(-c3cc(=O)c4ccccc4o3)c2)c1`, the IC50 is 1.2 to 88 µM.

With `Cc1cccc(COc2cccc(-c3cc(=O)c4ccccc4o3)c2)c1`, the half-inhibitory concentration (IC50) lay within 1.2 to 88 µM.

The next experiment addresses T1, Alpha glucosidase. Kind of experiment: Inhibition of alpha-glucosidase (unknown origin) using p-nitrophenyl-alpha-d-glucopyranoside as substrate preincubated for 15 mins followed by substrate addition measured after 30 mins by spectrophotometric analysis. The class given is protein assay.
In the case of `Clc1ccc2sc(SCc3cn(Cc4ccccc4Br)nn3)nc2c1`, the IC50 was in the range of 20 to 61 µM.

As for `Fc1ccc(Cn2cc(CSc3nc4cc(Cl)ccc4s3)nn2)cc1`, the IC50 was in the range of 20 to 61 µM.

`Clc1ccc(CSc2nc(-c3ccc(Br)cc3)cc(-c3ccc(Br)cc3)n2)cc1` showed an IC50 of 19 to 38 µM.

As to `CC(C)(C)c1ccc(Cn2cc(CSc3nc4cc(Cl)ccc4s3)nn2)cc1`, the IC50 was found to be 20 µM.

Consider `Brc1ccc(Cn2cc(CSc3nc4ccccc4s3)nn2)cc1`, for which the IC50 was in the range of 20 to 61 µM.

Compound `Clc1ccc(Cn2cc(CSc3nc4cc(Cl)ccc4s3)nn2)cc1` gave an IC50 of 20 to 61 µM.

`Clc1ccccc1CSc1nc(-c2ccc(Br)cc2)cc(-c2ccc(Br)cc2)n1` yielded an IC50 of 19 to 38 µM.

`Fc1cccc(CSc2nc(-c3ccc(Br)cc3)cc(-c3cccc(Br)c3)n2)c1`: the IC50 was in the range of 19 to 38 µM.

The compound `Fc1cccc(CSc2nc(-c3ccc(Br)cc3)cc(-c3ccc(Br)cc3)n2)c1` gave a half-maximal inhibitory concentration (IC50) of 19 to 38 µM.

Take `CC(C)(C)c1ccc(Cn2cc(CSc3nc4ccccc4s3)nn2)cc1`: the IC50 is 20 to 61 µM.

`Cc1ccc(-c2cc(-c3cccc(Br)c3)nc(SCc3cccc(F)c3)n2)cc1` came in with an IC50 of 19 to 38 µM.

`Brc1ccccc1Cn1cc(CSc2nc3ccccc3s2)nn1` registered an IC50 of 20 to 61 µM.

`Cc1ccc(-c2cc(-c3ccc(Br)cc3)nc(SCc3ccc(Cl)cc3)n2)cc1` displayed an IC50 of 19 to 38 µM.

Compound `Cc1ccc(-c2cc(-c3ccc(Br)cc3)nc(SCc3ccccc3Br)n2)cc1` showed an IC50 of 19 to 38 µM.

`Fc1ccccc1Cn1cc(CSc2nc3cc(Cl)ccc3s2)nn1` returned an IC50 of 20 to 61 µM.

For `Clc1ccc2sc(SCc3cn(Cc4ccc(Br)cc4)nn3)nc2c1`, the IC50 fell in the range of 20 to 61 µM.

The compound `Fc1cccc(Cn2cc(CSc3nc4ccccc4s3)nn2)c1` showed an IC50 of 20 to 61 µM.

Turning to `Clc1cc(Cl)cc(Cn2cc(CSc3nc4ccccc4s3)nn2)c1`, the IC50 was 20 to 61 µM.

Turning to `O=C(COc1ccc2ccc(=O)oc2c1)N/N=C1\C(=O)N(Cc2ccccc2F)c2ccc(Cl)cc21`, the IC50 was determined as 2.5 µM. That is a single-digit micromolar value.

Compound `Clc1ccc(Cn2cc(CSc3nc4ccccc4s3)nn2)cc1` yielded an IC50 of 20 to 61 µM.

`Clc1ccccc1CSc1nc(-c2ccc(Br)cc2)cc(-c2cccc(Br)c2)n1` gave an IC50 of 19 to 38 µM.

The compound `Fc1ccccc1CSc1nc(-c2ccc(Br)cc2)cc(-c2ccc(Br)cc2)n1` showed an IC50 of 19 to 38 µM.

`Clc1ccc2sc(SCc3cn(Cc4ccccc4)nn3)nc2c1` gave an IC50 of 20 to 61 µM.

As to `Cc1ccc(-c2cc(-c3cccc(Br)c3)nc(SCc3ccc(F)cc3)n2)cc1`, the IC50 was 19 to 38 µM.

Turning to `Clc1cc(Cl)cc(Cn2cc(CSc3nc4cc(Cl)ccc4s3)nn2)c1`, the IC50 was 20 to 61 µM.

In turn, `Fc1cccc(Cn2cc(CSc3nc4cc(Cl)ccc4s3)nn2)c1` registered a half-maximal inhibitory concentration (IC50) of 20 to 61 µM.

Compound `Fc1ccc(CSc2nc(-c3ccc(Br)cc3)cc(-c3ccc(Br)cc3)n2)cc1` yielded an IC50 of 19 to 38 µM.

As for `Clc1ccc2sc(SCc3cn(Cc4ccccc4Cl)nn3)nc2c1`, the IC50 was 20 to 61 µM.

Regarding `Cc1ccc(-c2cc(-c3cccc(Br)c3)nc(SCc3ccccc3Cl)n2)cc1`, the IC50 lay in the range of 19 to 38 µM.

A further experiment concerns the target T1, Alpha glucosidase. Kind of experiment: Inhibition of alpha-glucosidase (unknown origin) using p-nitro phenyl glucopyranoside as substrate preincubated for 5 mins followed by substrate addition measured after 30 mins. The class given is protein assay.
Take `O=c1cc(-c2nn(C(Nc3ccc(-c4ccc(NC(c5ccc(Cl)cc5Cl)n5nc(-c6cc7ccccc7oc6=O)oc5=S)cc4)cc3)c3ccc(Cl)cc3Cl)c(=S)o2)c2ccccc2o1` (stereo not drawn): the IC50 fell in the range of 0.07 to 0.76 µM.

In turn, `CN(C)c1ccc(C(Nc2ccc(-c3ccc(NC(c4ccc(N(C)C)cc4)n4nc(-c5cc(=O)oc6ccccc56)oc4=S)cc3)cc2)n2nc(-c3cc4ccccc4oc3=O)oc2=S)cc1` (stereo not drawn) displayed an IC50 of 0.07 to 0.76 µM.

In turn, `O=c1oc2ccccc2cc1-c1nn(C(Nc2ccc(Oc3ccc(NC(c4ccc([N+](=O)[O-])cc4)n4nc(-c5cc6ccccc6oc5=O)oc4=S)cc3)cc2)c2ccc([N+](=O)[O-])cc2)c(=S)o1` (stereo not drawn) registered an IC50 of 0.07 to 0.76 µM.

`O=c1oc2ccccc2cc1-c1nn(C(Nc2ccc(Oc3ccc(NC(c4ccc(Br)cc4)n4nc(-c5cc6ccccc6oc5=O)oc4=S)cc3)cc2)c2ccc(Br)cc2)c(=S)o1` (stereo not drawn): the IC50 was in the range of 0.07 to 0.76 µM.

As to `O=c1cc(-c2nn(C(Nc3ccc(NC(c4cccc(Br)c4)n4nc(-c5cc6ccccc6oc5=O)oc4=S)cc3)c3cccc(Br)c3)c(=S)o2)c2ccccc2o1` (stereo not drawn), the IC50 was 0.07 to 0.76 µM.

For `O=c1cc(-c2nn(C(Nc3ccc(NC(c4ccc(Cl)cc4Cl)n4nc(-c5cc6ccccc6oc5=O)oc4=S)cc3)c3ccc(Cl)cc3Cl)c(=S)o2)c2ccccc2o1` (stereo not drawn), the IC50 was 0.07 to 0.76 µM.

For `O=c1cc(-c2nn(C(Nc3ccc(-c4ccc(NC(c5ccc(Br)cc5)n5nc(-c6cc7ccccc7oc6=O)oc5=S)cc4)cc3)c3ccc(Br)cc3)c(=S)o2)c2ccccc2o1` (stereo not drawn), the IC50 was 0.07 to 0.76 µM.

`COc1cccc(C(Nc2ccc(NC(c3cccc(OC)c3)n3nc(-c4cc(=O)oc5ccccc45)oc3=S)cc2)n2nc(-c3cc4ccccc4oc3=O)oc2=S)c1` (stereo not drawn) came in with an IC50 of 0.07 to 0.76 µM.

`COc1cccc(C(Nc2ccc(-c3ccc(NC(c4cccc(OC)c4)n4nc(-c5cc(=O)oc6ccccc56)oc4=S)cc3)cc2)n2nc(-c3cc4ccccc4oc3=O)oc2=S)c1` (stereo not drawn) had a 50% inhibitory concentration (IC50) of 0.07 to 0.76 µM.

`Cc1ccc(C(Nc2ccc(Oc3ccc(NC(c4ccc(C)cc4)n4nc(-c5cc6ccccc6oc5=O)oc4=S)cc3)cc2)n2nc(-c3cc4ccccc4oc3=O)oc2=S)cc1` (stereo not drawn) yielded an IC50 of 0.07 to 0.76 µM.

Compound `O=c1cc(-c2nn(C(Nc3ccc(NC(c4cccc(Cl)c4)n4nc(-c5cc6ccccc6oc5=O)oc4=S)cc3)c3cccc(Cl)c3)c(=S)o2)c2ccccc2o1` (stereo not drawn) registered an IC50 of 0.07 to 0.76 µM.

Consider `O=c1cc(-c2nn(C(Nc3ccc(NC(c4ccc(F)cc4)n4nc(-c5cc6ccccc6oc5=O)oc4=S)cc3)c3ccc(F)cc3)c(=S)o2)c2ccccc2o1` (stereo not drawn), for which the half-maximal inhibitory concentration (IC50) lay within 0.07 to 0.76 µM.

In turn, `Cc1ccc(C(Nc2ccc(-c3ccc(NC(c4ccc(C)cc4)n4nc(-c5cc(=O)oc6ccccc56)oc4=S)cc3)cc2)n2nc(-c3cc4ccccc4oc3=O)oc2=S)cc1` (stereo not drawn) had an IC50 of 0.07 to 0.76 µM.

In the case of `O=c1cc(-c2nn(C(Nc3ccc(NC(c4ccc(Cl)cc4)n4nc(-c5cc6ccccc6oc5=O)oc4=S)cc3)c3ccc(Cl)cc3)c(=S)o2)c2ccccc2o1` (stereo not drawn), the IC50 lay within 0.07 to 0.76 µM.

`O=c1cc(-c2nn(C(Nc3ccc(-c4ccc(NC(c5ccc(Cl)cc5)n5nc(-c6cc7ccccc7oc6=O)oc5=S)cc4)cc3)c3ccc(Cl)cc3)c(=S)o2)c2ccccc2o1` (stereo not drawn) showed an IC50 of 0.07 to 0.76 µM.

`O=c1oc2ccccc2cc1-c1nn(C(Nc2ccc(Oc3ccc(NC(c4ccc(Cl)cc4Cl)n4nc(-c5cc6ccccc6oc5=O)oc4=S)cc3)cc2)c2ccc(Cl)cc2Cl)c(=S)o1` (stereo not drawn) showed an IC50 of 0.07 to 0.76 µM.

As to `O=c1cc(-c2nn(C(Nc3ccc(-c4ccc(NC(c5ccc([N+](=O)[O-])cc5)n5nc(-c6cc7ccccc7oc6=O)oc5=S)cc4)cc3)c3ccc([N+](=O)[O-])cc3)c(=S)o2)c2ccccc2o1` (stereo not drawn), the IC50 is 0.07 to 0.76 µM.

`O=c1cc(-c2nn(C(Nc3ccc(-c4ccc(NC(c5cccc(Br)c5)n5nc(-c6cc7ccccc7oc6=O)oc5=S)cc4)cc3)c3cccc(Br)c3)c(=S)o2)c2ccccc2o1` (stereo not drawn) displayed an IC50 of 0.07 to 0.76 µM.
